What is called inhibition is the relative decrease from the control value, in per cent. Higher therefore signals a strong effect. What is called IC50 is the concentration at which inhibition is half-maximal. A high value points to weaker potency in that assay.

For assay [1], the target named is T1, Transcription factor AP1 (Homo sapiens, UniProt P05412+P01100). In words: Inhibitory activity on AP1 DNA-binding at 500 uM. Type of assay: protein-complex assay.
For assay [2], the target named is T2, Transcription factor AP1 (Homo sapiens, UniProt P01100+P05412). In words: (§1) Inhibitory activity on AP1 using ELISA based AP1 DNA binding. Type of assay: protein-complex assay. (In general: An ELISA detects its analyte on a solid surface through an enzyme-linked reagent.)
In assay [3] the target is T1, Transcription factor AP1. In words: Inhibitory activity on AP1 DNA-binding at 1 mM. Type of assay: protein-complex assay.
For assay [4], the target named is T1, Transcription factor AP1. Described as §1. Type of assay: protein-complex assay.
For assay [5], the target named is T1, Transcription factor AP1. In words: (§2) Inhibition of the expression of AP1-luciferase by TPA-stimulated NIH3T3 cells. The settings on record: nih3t3. In kind it is cell-based.
The target in assay [6] is T2, Transcription factor AP1. The assay is described as §2. In kind it is cell-based.

Where only a bound is given, the exact number is not on record here.

T2 sequence (P05412 whole entry): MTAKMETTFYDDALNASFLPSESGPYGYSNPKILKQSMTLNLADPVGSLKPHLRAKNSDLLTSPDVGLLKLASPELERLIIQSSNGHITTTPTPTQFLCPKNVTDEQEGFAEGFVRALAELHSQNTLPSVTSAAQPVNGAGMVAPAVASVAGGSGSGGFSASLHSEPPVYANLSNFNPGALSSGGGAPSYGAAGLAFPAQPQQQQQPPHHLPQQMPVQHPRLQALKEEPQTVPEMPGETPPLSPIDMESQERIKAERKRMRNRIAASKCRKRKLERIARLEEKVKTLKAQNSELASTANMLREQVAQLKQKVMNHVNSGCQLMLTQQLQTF
T2 sequence (P01100 whole entry): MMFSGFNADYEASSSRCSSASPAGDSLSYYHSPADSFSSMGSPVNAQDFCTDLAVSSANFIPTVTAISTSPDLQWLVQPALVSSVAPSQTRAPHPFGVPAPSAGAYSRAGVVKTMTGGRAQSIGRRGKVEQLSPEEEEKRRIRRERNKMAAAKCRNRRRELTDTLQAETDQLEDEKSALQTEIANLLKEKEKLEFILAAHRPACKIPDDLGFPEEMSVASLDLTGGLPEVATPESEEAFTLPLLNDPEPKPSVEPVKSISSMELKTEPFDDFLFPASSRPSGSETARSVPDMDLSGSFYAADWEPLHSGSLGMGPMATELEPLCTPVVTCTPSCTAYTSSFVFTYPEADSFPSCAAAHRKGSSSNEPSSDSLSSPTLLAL
T1 sequence (P05412 whole entry): as the sequence (P05412 whole entry) above
T1 sequence (P01100 whole entry): as the sequence (P01100 whole entry) above

`CC(C)COc1ccc(C(=O)c2ccc(OCC(C)C)c(CCC(N)=O)c2)cc1`: the inhibition at Transcription factor AP1 [1] turned out to be 5%.
Regarding `CC(C)COc1ccc(C(=O)c2ccccc2)cc1CCC(=O)O`, the IC50 on Transcription factor AP1 [2] was above 2000 µM. Also, the inhibition amounted to 7% on Transcription factor AP1 [1] and 9% on Transcription factor AP1 [3].
In turn, `CCCOc1ccc(C(=O)c2ccc(OCC(C)C)cc2)cc1CCC(=O)O` gave an IC50 at Transcription factor AP1 [2] of 910 µM. Moreover, the inhibition was found to be 26% on Transcription factor AP1 [1] and 55% at Transcription factor AP1 [3].
For the compound `CC(C)COc1ccc(C(=O)c2ccc(OCc3ccccc3)cc2)cc1CCC(=O)O`, the inhibition on Transcription factor AP1 [1] was 45%.
`CC(C)CCC=C1CCC2(CC1)SC[C@@H](C(=O)O)N2C(=O)CCC(C)C` (stereo partly drawn): the half-inhibitory concentration (IC50) is 650 µM at Transcription factor AP1 [4] and 11.8 µM against Transcription factor AP1 [5].
Take `CC(C)COc1ccc(C(=O)c2cccc(CCC(=O)O)c2)cc1`: on Transcription factor AP1 [2], the IC50 is above 2000 µM. Besides, the inhibition at Transcription factor AP1 [1] was determined as 10%; on Transcription factor AP1 [3] it was 14%.
On Transcription factor AP1 [1], `CC(C)COc1ccc(C(=O)c2ccc(OCC(C)C)cc2)cc1` showed an inhibition of 3%.
Take `CC(C)COc1cccc(C(=O)c2ccc(OCC(C)C)c(CCC(=O)O)c2)c1`: the IC50 on Transcription factor AP1 [2] came to 600 µM; at Transcription factor AP1 [6], 5.8 µM.
On to `CCCOc1ccc(C(=O)c2ccc(OCC(C)C)c(CCC(=O)O)c2)cc1`, for which the IC50 on Transcription factor AP1 [2] is 930 µM. The inhibition on Transcription factor AP1 [1] was determined as 25%; at Transcription factor AP1 [3] it was 42%.
For the compound `CC(C)COc1ccc(C(=O)c2ccc(OCC(C)C)c(CCC(=O)O)c2)cc1`, the figures for the IC50 at Transcription factor AP1 [2] and against Transcription factor AP1 [6] were 610 µM and 5 µM, respectively. For the same compound, the inhibition at Transcription factor AP1 [1] is 28%; at Transcription factor AP1 [3], 91%.
Turning to `CC(C)CC=C1CCC2(CC1)SC[C@@H](C(=O)O)N2C(=O)CCCC(C)C` (stereo partly drawn), the IC50 at Transcription factor AP1 [4] was determined as 460 µM; against Transcription factor AP1 [5] it was 13.3 µM.
Regarding `CC(C)COc1ccc(C(=O)c2ccc(OCc3ccccc3)c(CCC(=O)O)c2)cc1`, the IC50 on Transcription factor AP1 [2] is 420 µM. The values for the inhibition on Transcription factor AP1 [1] and at Transcription factor AP1 [3] were 51% and 97%, respectively.

The values are drawn from ChEMBL document CHEMBL1148596, “Discovery of nonpeptidic small-molecule AP-1 inhibitors: lead hopping based on a three-dimensional pharmacophore model” (J Med Chem, 2006).
